Assay results as given in patent US11299510B2, “Substituted pyridopyrrolopyrimidine ribonucleosides for therapeutic uses” (USTAV ORGANICKE CHEMIE A BIOCHEMIE AV CR, V.V.I., priority 2018, dated 2022).

Experiments:
Type in all cases: cell-based
[1] = tested on: A549 (human lung adenocarcinoma); assay: cytotoxic MTS test, A549; conditions: A549 cells
Description: (§1) To evaluate the antitumor activity of newly prepared compounds for in vitro conditions, we used cytotoxic MTS test (Nosková V. et al., Neoplasma 2002, 49, 418-425) on cell lines derived from normal tissues or tumors. Specifically, cell lines K562 (human acute myeloid leukemia); K562-Tax (human acute myeloid leukemia, paclitaxel resistant subline, overexpress multiple drug resistant protein PgP); CEM (T-lymfoblastic leukemia); CEM-DNR-bulk (T-lymfoblastic leukemia, doxorubicin resistant); A549 (human lung adenocarcinoma); HCT116p53 wt (human colorectal cancer, wild-type); HCT116p53−/−(human colorectal cancer, mutant p53) a U2OS (human bone osteosarcoma) were used. Express characteristics, susceptibility profiles of classic antitumor drugs as well as methodology of cytotoxic MTS test have been repeatedly published (Denizot, F.; Lang, R., J. Immunol. Meth. 1986, 89, 271-277; Noskova, V., see above; Šarek J. et al., J, Med. Chem., 2003, 46, 5402-5415).

[2] = tested on: BJ (normal human fibroblasts); assay: cytotoxic MTS test, BJ; conditions: BJ cells
CCRF-CEM = assay: cytotoxic MTS test, CCRF-CEM; conditions: Homo sapiens; CCRF-CEM cells
Description: as §1

[3] = tested on: CEM-DNR-bulk (T-lymfoblastic leukemia, doxorubicin resistant); assay: cytotoxic MTS test, CEM-DNR; conditions: Homo sapiens; CEM-DNR cells
Description: as §1

[4] = tested on: HCT116p53 wt (human colorectal cancer, wild-type); assay: cytotoxic MTS test, HCT116; conditions: HCT-116, HCT116 cells
Description: as §1

[5] = tested on: HCT116p53−/− (human colorectal cancer, mutant p53); assay: cytotoxic MTS test, HCT116p53; conditions: HCT116p53 cells
Description: as §1

[6] = tested on: K562 (human acute myeloid leukemia); assay: cytotoxic MTS test, K562; conditions: K562 cells
Description: as §1

[7] = tested on: K562-Tax (human acute myeloid leukemia, paclitaxel resistant subline); assay: cytotoxic MTS test, K562-TAX; conditions: K562-TAX cells
Description: as §1

[8] = tested on: MRC-5 (normal human fibroblasts); assay: cytotoxic MTS test, MRC-5; conditions: MRC5, MRC-5 cells
[9] = tested on: U2OS (human bone osteosarcoma); assay: cytotoxic MTS test, U2OS; conditions: U2OS cells
Description: as §1

Hep G2 = assay: cytotoxic MTS test, Hep G2; conditions: Homo sapiens, HepG2; Hep G2 cells
HL 60 = assay: cytotoxic MTS test, HL 60; conditions: Homo sapiens; HL 60 cells
[10] = tested on: CEM (T-lymfoblastic leukemia); assay: cytotoxic MTS test, CEM; conditions: Homo sapiens, CCRF-CEM; CEM cells
Description: as §1

HeLa = assay: cytotoxic MTS test, HeLa; conditions: Homo sapiens; HeLa cells

Structure (SMILES)	IC50 [1] [µM]	IC50 [2] [µM]	IC50 (CCRF-CEM) [µM]	IC50 [3] [µM]	IC50 [4] [µM]	IC50 [5] [µM]	IC50 [6] [µM]	IC50 [7] [µM]	IC50 [8] [µM]	IC50 [9] [µM]	IC50 (Hep G2) [µM]	IC50 (HL 60) [µM]	IC50 [10] [µM]	IC50 (HeLa) [µM]
CSc1ncnc2c1c1ncccc1n2[C@@H]1O[C@H](CO)[C@@H](O)[C@H]1O [Compound 1b, 4-(methylsulfanyl)-9-(β-D-ribofuranosyl)-9H-pyrido[2′,3′:4,5]pyrrolo[2,3-d]pyrimidine]	> 50	> 50	> 50	> 50	> 50	> 50	> 50	> 50	> 50	> 50	> 50	> 50	> 50	> 50
OC[C@H]1O[C@@H](n2c3cnccc3c3c(-c4cc5ccccc5o4)ncnc32)[C@H](O)[C@@H]1O [Compound 2i, 4-(benzofuran-2-yl)-9-(β-D-ribofuranosyl)-9H-pyrido[4′,3′:4,5]pyrrolo[2,3-d]pyrimidine]	10 to 25	25 to 50	0.9 to 10	10 to 25	0.9 to 10	10 to 25	10 to 25	10 to 25	10 to 25	10 to 25	> 50	> 50	> 50	> 50
Cc1ncnc2c1c1ncccc1n2[C@@H]1O[C@H](CO)[C@@H](O)[C@H]1O [Compound 1d, 4-methyl-9-(β-D-ribofuranosyl)-9H-pyrido[2′,3′:4,5]pyrrolo[2,3-d]pyrimidine]	> 50	> 50	0.2 to 0.9	> 50	> 50	> 50	10 to 25	> 50	> 50	0.9 to 10	> 50	> 50	> 50	> 50
OC[C@H]1O[C@@H](n2c3cccnc3c3c(-c4ccsc4)ncnc32)[C@H](O)[C@@H]1O [Compound 1h, 4-(thiophen-3-yl)-9-(β-D-ribofuranosyl)-9H-pyrido[2′,3′:4,5]pyrrolo[2,3-d]pyrimidine]	> 50	> 50	> 50	> 50	> 50	> 50	> 50	> 50	> 50	> 50	> 50	> 50	> 50	> 50
COc1ncnc2c1c1ncccc1n2[C@@H]1O[C@H](CO)[C@@H](O)[C@H]1O [Compound 1a, 4-methoxy-9-(β-D-ribofuranosyl)-9H-pyrido[2′,3′:4,5]pyrrolo[2,3-d]pyrimidine]	> 50	> 50	> 50	> 50	> 50	> 50	> 50	> 50	> 50	> 50	> 50	> 50	> 50	> 50
OC[C@H]1O[C@@H](n2c3cccnc3c3c(-c4ccco4)ncnc32)[C@H](O)[C@@H]1O [Compound 1f, 4-(furan-2-yl)-9-(β-D-ribofuranosyl)-9H-pyrido[2′,3′:4,5]pyrrolo[2,3-d]pyrimidine]	> 50	> 50	> 50	> 50	> 50	> 50	> 50	> 50	> 50	> 50	> 50	> 50	> 50	> 50
COc1ncnc2c1c1ccncc1n2[C@@H]1O[C@H](CO)[C@@H](O)[C@H]1O [Compound 2a, 4-methoxy-9-(β-D-ribofuranosyl)-9H-pyrido[4′,3′:4,5]pyrrolo[2,3-d]pyrimidine]	> 50	> 50	0.2 to 0.9	0.9 to 10	0.9 to 10	0.9 to 10	0.9 to 10	0.9 to 10	> 50	0.9 to 10	0.9 to 10	0.2 to 0.9	0.9 to 10	0.9 to 10
OC[C@H]1O[C@@H](n2c3cccnc3c3c(-c4cc5ccccc5o4)ncnc32)[C@H](O)[C@@H]1O [Compound 1i, 4-(benzofuran-2-yl)-9-(β-D-ribofuranosyl)-9H-pyrido[2′,3′:4,5]pyrrolo[2,3-d]pyrimidine]	> 50	> 50	10 to 25	> 50	> 50	> 50	> 50	> 50	> 50	> 50	> 50	> 50	> 50	> 50
CN(C)c1ncnc2c1c1ncccc1n2[C@@H]1O[C@H](CO)[C@@H](O)[C@H]1O [Compound 1e, 4-(dimethylamino)-9-(β-D-ribofuranosyl)-9H-pyrido[2′,3′:4,5]pyrrolo[2,3-d]pyrimidine]	> 50	> 50	> 50	> 50	> 50	> 50	> 50	> 50	> 50	> 50	> 50	> 50	> 50	> 50
CSc1ncnc2c1c1ccncc1n2[C@@H]1O[C@H](CO)[C@@H](O)[C@H]1O [Compound 2b, 4-(methylsulfanyl)-9-(β-D-ribofuranosyl)-9H-pyrido[4′,3′:4,5]pyrrolo[2,3-d]pyrimidine]	10 to 25	> 50	0.2 to 0.9	0.9 to 10	0.2 to 0.9	0.2 to 0.9	0.2 to 0.9	0.9 to 10	> 50	0.2 to 0.9	0.9 to 10	0.2 to 0.9	0.2 to 0.9	0.9 to 10
Nc1ncnc2c1c1ncccc1n2[C@@H]1O[C@H](CO)[C@@H](O)[C@H]1O [Compound 1c, 4-amino-9-(β-D-ribofuranosyl)-9H-pyrido[2′,3′:4,5]pyrrolo[2,3-d]pyrimidine]	> 50	0.9 to 10	0.2 to 0.9	> 50	25 to 50	25 to 50	25 to 50	> 50	> 50	0.9 to 10	0.9 to 10	0.2 to 0.9	> 50	> 50
CN(C)c1ncnc2c1c1ccncc1n2[C@@H]1O[C@H](CO)[C@@H](O)[C@H]1O [Compound 2e, 4-(dimethylamino)-9-(β-D-ribofuranosyl)-9H-pyrido[4′,3′:4,5]pyrrolo[2,3-d]pyrimidine]	> 50	> 50	> 50	> 50	> 50	> 50	> 50	> 50	> 50	> 50	> 50	> 50	> 50	> 50
OC[C@H]1O[C@@H](n2c3cnccc3c3c(-c4ccsc4)ncnc32)[C@H](O)[C@@H]1O [Compound 2h, 4-(thiophen-3-yl)-9-(β-D-ribofuranosyl)-9H-pyrido[4′,3′:4,5]pyrrolo[2,3-d]pyrimidine]	> 50	> 50	> 50	> 50	> 50	> 50	> 50	> 50	> 50	> 50	> 50	> 50	> 50	> 50
OC[C@H]1O[C@@H](n2c3cccnc3c3c(-c4ccoc4)ncnc32)[C@H](O)[C@@H]1O [Compound 1g, 4-(furan-3-yl)-9-(β-D-ribofuranosyl)-9H-pyrido[2′,3′:4,5]pyrrolo[2,3-d]pyrimidine]	> 50	> 50	> 50	> 50	> 50	> 50	> 50	> 50	> 50	> 50	> 50	> 50	> 50	> 50
